Results taken from patent publication US10993957B2 (NuCana plc, priority 2011, dated 2021).
Like-named read-outs stand apart in the source and are kept apart here.

How the values were obtained:
[1] = tested on: L1210/0; assay: Cytostatic assay, L1210/0 cells; assay type: cell-based, murine
Text: (§1) The cell lines employed were L1210/0 (a leukemia cell line), FM3A/0 (a breast cancer cell line), Cem/0 (an acute lymphoblastic leukemia cell line) and HeLa (a cervical cell line).

[2] = tested on: L1210/TK^−; assay: Cytostatic assay, thymidine kinase-deficient L1210/TK^− cells; assay type: cell-based, murine
[3] = tested on: Cem/0; assay: Cytostatic assay, CEM/0 cells; assay type: cell-based, human; conditions: for CC50: read-out: CC50 Cem/0; for IC50: read-out: IC50 Cem/0
Text: as §1

[4] = tested on: Cem/TK^−; assay: Cytostatic assay, thymidine kinase-deficient CEM/TK^− cells; assay type: cell-based, human; conditions: for CC50: read-out: CC50 Cem/TK^−; for IC50: read-out: IC50 Cem/TK^−
[5] = tested on: HeLa; assay: Cytostatic assay, HeLa cells; assay type: cell-based; conditions: for CC50: read-out: CC50 HeLa; for IC50: read-out: IC50 HeLa
Text: as §1

[6] = tested on: HeLa/TK^−; assay: Cytostatic assay, HeLa/TK^− cells; assay type: cell-based; conditions: for CC50: read-out: CC50 HeLa/TK^−; for IC50: read-out: IC50 HeLa/TK^−
Text: as §1

[7] = tested on: L1210.Hyor; assay: Cytostatic assay, Mycoplasma hyorhinis-infected L1210 cells; conditions: for % Retention: CC50 L1210 × 100 ÷ CC50 L1210/Hyor
Text: Murine leukaemia L1210/0 and human T-lymphocyte CEM/0 cells were obtained from the American Type Culture Collection (ATCC) (Rockville, Md.). Human glioblastoma U87 cells were kindly provided by Dr. E. Menue (Institut Pasteur, Paris, France). […] S. Eriksson (currently at Uppsala University, Uppsala, Sweden) and Prof A. Karlsson (Karolinska Institute, Stockholm, Sweden). […] All cells were maintained in Dulbecco's modified Eagle's medium (DMEM) (Invitrogen, Carlsbad, Calif.) with 10% foetal bovine serum (FBS) (Biochrom AG, Berlin, Germany), 10 mM Hepes and 1 mM Sodium Pyruvate (Invitrogen). Cells were grown at 37° C. in a humidified incubator with a gas phase of 5% CO2.
Monolayer cells (U87 and U87.Hyor) were seeded in 48-well microtiter plates (Nunc™, Roskilde, Denmark) at 10,000 cells/well. After 24 hours, an equal volume of fresh medium containing the test compounds was added. On day 5, cells were trypsinized and counted in a Coulter counter (Analis, Suarlée, Belgium). Suspension cells (L1210/0, L1210/TK^−, L1210.Hyor, CEM/0, CEM/TK^−) were seeded in 96-well microtiter plates (Nunc™) at 60,000 cells/well in the presence of a given amount of the test compounds. The cells were allowed to proliferate for 48 h (L1210) or 72 hours (CEM) and were then counted in a Coulter counter.
Samples were also assayed for their % retention of activity in mycoplasma infected cells.
The L1210/0 cell cultures were infected with the mycoplasma species M. hyorhinis (cells designated: L1210.Hyor).

[8] = Mus musculus, L1210/0, Table 1, read-out: CC50 L1210/0
[9] = Mus musculus, L1210/0, Table 2, mycoplasma negative cells, read-out: CC50 L1210
[10] = Mus musculus, L1210/0, Table 6, read-out: IC50 L1210/0
[11] = Mus musculus, L1210/0, Table 7, read-out: IC50 L1210/0
[12] = Mus musculus, L1210, Table 1, read-out: CC50 L1210/TK^−
[13] = Mus musculus, L1210, Table 6, read-out: IC50 L1210/TK^−
[14] = Homo sapiens, CCRF-CEM, Table 1
[15] = Homo sapiens, CCRF-CEM, Table 6
[16] = Homo sapiens, CEM-TK(-), Table 1
[17] = Homo sapiens, CEM-TK(-), Table 6
[18] = Mus musculus, L1210, read-out: CC50 L1210/Hyor
[19] = Mus musculus, L1210, read-out: IC50 L1210.Hyor
[20] = Table 6, read-out: IC50 L1210/0
[21] = Table 7, read-out: IC50 L1210/0
[22] = Table 6, read-out: IC50 L1210/TK^−
[23] = read-out: IC50 L1210.Hyor, Table 7

| Structure (SMILES) | CC50 [1, 8] | CC50 [1, 9] | IC50 [1, 10] | IC50 [1, 11] | CC50 [2, 12] | IC50 [2, 13] | CC50 [3, 14] | IC50 [3, 15] | CC50 [4, 16] | IC50 [4, 17] | CC50 ([5]; Homo sapiens, HeLa, Table 1) | IC50 ([5]; Homo sapiens, HeLa, Table 6) | CC50 ([6]; Homo sapiens, HeLa, Table 1) | IC50 ([6]; Homo sapiens, HeLa, Table 6) | % Retention [7] | CC50 [7, 18] | IC50 [7, 19] | IC50(L1210.Hyor)/IC50(L1210/0) ([7]; Table 7) | IC50 [1, 20] | IC50 [1, 21] | also measured |
| --- | --- | --- | --- | --- | --- | --- | --- | --- | --- | --- | --- | --- | --- | --- | --- | --- | --- | --- | --- | --- | --- |
| O=C(OCc1ccccc1)[C@H](Cc1ccccc1)NP(=O)(OC[C@H]1O[C@@H](n2cc(F)c(=O)[nH]c2=O)CC1O)Oc1cccc2ccccc12 (stereo partly drawn) [CPF 587, 5-Fluoro-2′-deoxyuridine-5′-O-[1-naphthyl-(benzoxy-L-phenylalaninyl)]phosphate] | 12 ± 7 nM | 22 nM | 12 ± 7 nM | 21 ± 6.1 nM | 5600 ± 1300 nM | 5600 ± 1300 nM | 100 ± 30 nM | 100 ± 30 nM | 7200 ± 100 nM | 7200 ± 100 nM | 160 ± 80 nM | 160 ± 80 nM | 6800 ± 1500 nM | 6800 ± 1500 nM | 0.5% | 4200 nM | 230 ± 78 nM | 11 |  |  |  |
| O=C(OCc1ccccc1)C1CCCN1P(=O)(OC[C@H]1O[C@@H](n2cc(F)c(=O)[nH]c2=O)CC1O)Oc1cccc2ccccc12 (stereo partly drawn) [CPF 577, 5-Fluoro-2′-deoxyuridine-5′-O-[1-naphthyl(benzoxy-L-prolinyl)] phosphate] |  |  |  |  |  |  |  |  |  |  |  |  |  |  | 36% | 630 nM | 650 ± 70 nM | 2.5 |  |  | CC50 ([1]; Mus musculus, L1210/0, read-out: CC50 L1210): 230 nM; CC50 ([1]; Mus musculus, L1210/0, read-out: CC50 L1210/0): 210 ± 80 nM; IC50 ([1]; Mus musculus, L1210/0, read-out: IC50 L1210/0, Table 6): 210 ± 80 nM; IC50 ([1]; Mus musculus, L1210/0, read-out: IC50 L1210/0, Table 7): 260 ± 55 nM; CC50 ([2]; Mus musculus, L1210, read-out: CC50 L1210/TK^−): 25000 ± 8000 nM; IC50 ([2]; Mus musculus, L1210, read-out: IC50 L1210/TK^−): 25000 ± 8000 nM; CC50 ([3]; Homo sapiens, CCRF-CEM): 890 ± 350 nM; IC50 ([3]; Homo sapiens, CCRF-CEM): 890 ± 350 nM; CC50 ([4]; Homo sapiens, CEM-TK(-)): 32000 ± 9000 nM; IC50 ([4]; Homo sapiens, CEM-TK(-)): 35000 ± 9000 nM; CC50 ([5]; Homo sapiens, HeLa): 1200 nM; IC50 ([5]; Homo sapiens, HeLa): 1200 nM; CC50 ([6]; Homo sapiens, HeLa): 26000 ± 1000 nM; IC50 ([6]; Homo sapiens, HeLa): 26000 ± 1000 nM |
| CSCC[C@H](NP(=O)(OC[C@H]1O[C@@H](n2cc(F)c(=O)[nH]c2=O)CC1O)Oc1ccccc1)C(=O)OCc1ccccc1 (stereo partly drawn) [CPF 586, 5-Fluoro-2′-deoxyuridine-5′-O-[phenyl-(benzoxy-L-methioninyl)] phosphate] | 73 ± 35 nM | 100 nM | 73 ± 35 nM | 58 ± 35 nM | 4100 ± 1200 nM | 4100 ± 1200 nM | 280 ± 30 nM | 280 ± 30 nM | 25000 nM | 25000 nM | 150 ± 20 nM | 150 ± 20 nM | 11000 ± 7000 nM | 11000 ± 7000 nM | 11% | 870 nM | 760 ± 180 nM | 13 |  |  |  |
| C[C@H](NP(=O)(OC[C@H]1O[C@@H](n2cc(F)c(=O)[nH]c2=O)CC1O)Oc1cccc2ccccc12)C(=O)OCC1CC1 (stereo partly drawn) [CPF 579, 5-Fluoro-2′-deoxyuridine-5′-O-[1-naphthyl-(cyclopropylmethanoxy-L-alaninyl)] phosphate] | 17 ± 7 nM | 19 nM | 17 ± 7 nM | 14 ± 4.2 nM | 120 ± 60 nM | 120 ± 60 nM | 59 ± 17 nM | 59 ± 17 nM | 1100 ± 200 nM | 1100 ± 200 nM | 68 ± 1 nM | 68 ± 1 nM | 1400 ± 400 nM | 1400 ± 400 nM | 42% | 45 nM | 31 ± 6.4 nM | 2.2 |  |  |  |
| CC(C)C(NP(=O)(OCC1OC(n2cc(F)c(=O)[nH]c2=O)CC1O)Oc1cccc2ccccc12)C(=O)OC1CCCCC1 (stereo not drawn) [CPF 576] |  |  |  |  |  |  |  |  |  |  |  |  |  |  | 51% |  |  | 1.08 | 1100 ± 500 nM | 1200 ± 170 nM | CC50 ([1]; Table 2, mycoplasma negative cells, read-out: CC50 L1210): 1400 nM; IC50 [2, 22]: 35000 ± 8000 nM; IC50 ([3]; Table 6): 800 ± 280 nM; IC50 ([4]; Table 6): 46000 ± 14000 nM; IC50 ([5]; Table 6): 670 ± 30 nM; IC50 ([6]; Table 6): 27000 ± 6000 nM; CC50 ([7]; read-out: CC50 L1210/Hyor, Table 2, mycoplasma positive cells): 2730 nM; IC50 [7, 23]: 1290 ± 290 nM |
| CCCCCOC(=O)C(C)(C)NP(=O)(OCC1OC(n2cc(F)c(=O)[nH]c2=O)CC1O)Oc1cccc2ccccc12 (stereo not drawn) [Nap Pnt DMG] |  |  |  |  |  |  |  |  |  |  |  |  |  |  |  |  |  | 0.42 | 37 ± 10 nM | 45 ± 2.1 nM | IC50 [2, 22]: 300 ± 130 nM; IC50 ([3]; Table 6): 140 nM; IC50 ([4]; Table 6): 5400 ± 1100 nM; IC50 ([5]; Table 6): 120 ± 30 nM; IC50 ([6]; Table 6): 2300 ± 100 nM; IC50 [7, 23]: 19 ± 2.8 nM |
| CCCCCOC(=O)C(CC(C)C)NP(=O)(OCC1OC(n2cc(F)c(=O)[nH]c2=O)CC1O)Oc1cccc2ccccc12 (stereo not drawn) [Nap Pnt Leu] |  |  |  |  |  |  |  |  |  |  |  |  |  |  |  |  |  | 1.13 | 17 ± 1 nM | 31 ± 2 nM | IC50 [2, 22]: 1200 ± 400 nM; IC50 ([3]; Table 6): 71 ± 8 nM; IC50 ([4]; Table 6): 15000 ± 4000 nM; IC50 ([5]; Table 6): 39 ± 14 nM; IC50 ([6]; Table 6): 7500 ± 400 nM; IC50 [7, 23]: 35 ± 10 nM |
